Data from PubChem BioAssay (NCI).
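Step 1: Grow cells in 96-well plates. Step 2: Expose to compound for 48 hours at 5 concentrations. Step 3: Interpolate endpoints linearly; if unreached, use highest concentration. GI50: concentration for 50% inhibition of growth. TGI is the concentration that stops growth completely.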

Tests used:
Assay in all cases: inhibition of tumour cell growth, NCI panel, 48 h
M14 melanoma = tested on: M14 melanoma
SN12C renal = tested on: SN12C renal
OVCAR-4 ovarian = tested on: OVCAR-4 ovarian
HL-60(TB) leukemia = tested on: HL-60(TB) leukemia
ACHN renal = tested on: ACHN renal
NCI-H23 lung = tested on: NCI-H23 lung
TK-10 renal = tested on: TK-10 renal
DU-145 prostate = tested on: DU-145 prostate
IGROV1 ovarian = tested on: IGROV1 ovarian
MDA-MB-231 breast = tested on: MDA-MB-231 breast
COLO 205 colon = tested on: COLO 205 colon
MALME-3M melanoma = tested on: MALME-3M melanoma
BT-549 breast = tested on: BT-549 breast
K-562 leukemia = tested on: K-562 leukemia
NCI/ADR-RES ovarian = tested on: NCI/ADR-RES ovarian
HS 578T breast = tested on: HS 578T breast
A549 NSCLC = tested on: A549 NSCLC
HOP-92 NSCLC = tested on: HOP-92 NSCLC
OVCAR-3 ovarian = tested on: OVCAR-3 ovarian
SNB-19 CNS = tested on: SNB-19 CNS
SF-268 CNS = tested on: SF-268 CNS
UO-31 renal = tested on: UO-31 renal
SNB-75 CNS = tested on: SNB-75 CNS
CCRF-CEM leukemia = tested on: CCRF-CEM leukemia
SR leukemia = tested on: SR leukemia
HOP-62 NSCLC = tested on: HOP-62 NSCLC
EKVX NSCLC = tested on: EKVX NSCLC
SK-MEL-28 melanoma = tested on: SK-MEL-28 melanoma
RPMI-8226 leukemia = tested on: RPMI-8226 leukemia
A498 renal = tested on: A498 renal
MDA-MB-468 breast = tested on: MDA-MB-468 breast
SK-OV-3 ovarian = tested on: SK-OV-3 ovarian
SK-MEL-2 melanoma = tested on: SK-MEL-2 melanoma
UACC-62 melanoma = tested on: UACC-62 melanoma
SF-539 CNS = tested on: SF-539 CNS
MDA-MB-435 = tested on: MDA-MB-435
RXF 393 renal = tested on: RXF 393 renal
OVCAR-5 ovarian = tested on: OVCAR-5 ovarian
HCC-2998 colon = tested on: HCC-2998 colon
KM12 colon = tested on: KM12 colon
MOLT-4 leukemia = tested on: MOLT-4 leukemia
NCI-H460 lung = tested on: NCI-H460 lung
PC-3 prostate = tested on: PC-3 prostate
NCI-H226 lung = tested on: NCI-H226 lung
T-47D breast = tested on: T-47D breast
CAKI-1 renal = tested on: CAKI-1 renal

## CN1CCN(c2ccc(Nc3nc(N4CCN(S(=O)(=O)c5ccc(Cl)cc5)CC4)c4sccc4n3)cc2)CC1
M14 melanoma
  GI50: 1.85 µM
  TGI: 3.62 µM
SN12C renal
  GI50: 13.7 µM
  TGI: 34.7 µM
OVCAR-4 ovarian
  GI50: 14.9 µM
  TGI: 38.7 µM
HL-60(TB) leukemia
  GI50: 2.1 µM
  TGI: 4.47 µM
ACHN renal
  GI50: 3.03 µM
  TGI: 11.4 µM
NCI-H23 lung
  GI50: 19.1 µM
  TGI: 66.3 µM
TK-10 renal
  GI50: 6.47 µM
  TGI: 21.6 µM
DU-145 prostate
  GI50: 3.36 µM
  TGI: 10.8 µM
IGROV1 ovarian
  GI50: 14.5 µM
  TGI: 44.8 µM
MDA-MB-231 breast
  GI50: 1.71 µM
  TGI: 3.27 µM
COLO 205 colon
  GI50: 2.67 µM
  TGI: 7.54 µM
MALME-3M melanoma
  GI50: 1.64 µM
  TGI: 3.03 µM
BT-549 breast
  GI50: 20.8 µM
  TGI: 58.7 µM
K-562 leukemia
  GI50: 2.16 µM
  TGI: 6.04 µM
NCI/ADR-RES ovarian
  GI50: 10.9 µM
  TGI: 39.7 µM
HS 578T breast
  GI50: 13.1 µM
  TGI: 46.7 µM
A549 NSCLC
  GI50: 4.35 µM
  TGI: 24.9 µM
HOP-92 NSCLC
  GI50: 10.7 µM
  TGI: 28.7 µM
OVCAR-3 ovarian
  GI50: 2.85 µM
  TGI: 7.42 µM
SNB-19 CNS
  GI50: 3.69 µM
  TGI: 17.1 µM
SF-268 CNS
  GI50: 13.5 µM
  TGI: 39 µM
UO-31 renal
  GI50: 13.7 µM
  TGI: 29.6 µM
SNB-75 CNS
  GI50: 9.97 µM
  TGI: 24.3 µM
CCRF-CEM leukemia
  GI50: 4.47 µM
  TGI: 32.6 µM
SR leukemia
  GI50: 1.92 µM
  TGI: 4.82 µM
HOP-62 NSCLC
  GI50: 28.9 µM
  TGI: 88.8 µM
EKVX NSCLC
  GI50: 22 µM
  TGI: 59.8 µM
SK-MEL-28 melanoma
  GI50: 1.73 µM
  TGI: 3.36 µM
RPMI-8226 leukemia
  GI50: 2.89 µM
  TGI: 6.13 µM
A498 renal
  GI50: 17.5 µM
  TGI: 31.6 µM
MDA-MB-468 breast
  GI50: 1.64 µM
  TGI: 3.14 µM
SK-OV-3 ovarian
  GI50: 26.8 µM
  TGI: 69.2 µM
SK-MEL-2 melanoma
  GI50: 19.4 µM
  TGI: 40.1 µM
UACC-62 melanoma
  GI50: 1.71 µM
  TGI: 3.25 µM
SF-539 CNS
  GI50: 1.69 µM
  TGI: 3.16 µM
MDA-MB-435
  GI50: 1.76 µM
  TGI: 3.31 µM
RXF 393 renal
  GI50: 1.91 µM
  TGI: 3.68 µM
OVCAR-5 ovarian
  GI50: 15.6 µM
  TGI: 39.5 µM
HCC-2998 colon
  GI50: 2.64 µM
  TGI: 6.18 µM
KM12 colon
  GI50: 4.85 µM
  TGI: 20 µM
MOLT-4 leukemia
  GI50: 2.21 µM
  TGI: 5.78 µM
NCI-H460 lung
  GI50: 1.93 µM
  TGI: 3.69 µM
PC-3 prostate
  GI50: 4.01 µM
  TGI: > 100 µM
NCI-H226 lung
  GI50: 18.7 µM
  TGI: 55.5 µM
T-47D breast
  GI50: 7.17 µM
  TGI: 35.9 µM
CAKI-1 renal
  GI50: 11.6 µM
  TGI: 27.8 µM
